Holding throughout (format): in vivo
The subject of one series is Wistar adult rats. Put plainly: Neuropathic pain model, ligature of the right sciatic nerve (Bennett), withdrawal latencies. The settings on record: 14 days after ligature, percentage of control response. Here is the method:
Wistar adult rats weighing about 200 grams were used, in the experimental model described by Bennett G J, Xie Y K, Pain 1988, 33(1): 87-107. The pain response (withdrawal latencies) is determined 14 days after the ligature of the right sciatic nerve. The results obtained are reported in Table 2 and have been expressed as a percentage ratio of the difference between the response from the intact paw and from the injured paw, to the response of the control animals, that have been injected with the carrier and undergone the nerve ligature. The groups were of 10 rats each.

Series [1] concerns female Sprague-Dawley rats. Put plainly: Cold allodynia (ethyl chloride spray) in spinally-injured rats, acute administration. The source says: (§1) In 6 groups of female Sprague-Dawley rats weighting 200 g, photochemically-induced ischemic spinal cord injury was produced according to methods described by Xu et al. Pain, 1992, 48, 279-290. Spinally-injured rats developed a chronic pain syndrome, including marked mechanical and cold allodynia. The rats were injured 3-6 months before the beginning of the experiment.
(§2) Each group of rats was i.p. treated, respectively, with one of the following compounds using one of the above indicated doses: • NO-gabapentin at doses of 20 mg/Kg (55 μmole/Kg), or 60 mg/Kg (167.21 μmole/Kg), or 100 mg/kg (278.7 μmole/Kg), dissolved in saline, single dose, i. p.); • gabapentin at doses of 30 mg/Kg ([…]) or 100 mg/kg ([…]), dissolved in saline, single dose i. p.); • the control group received the vehicle; The response to cold was tested by spray-applying ethyl chloride on the shaved allodynic skin area at time 0 (i.p. injection) and then at 30′, 120′ and 240′. The response was evaluated according to the following score: • 0=no response; • 1=localized response (skin twitch and contraction), no vocalization; • 2=transient vocalization, moderate struggle; • 3=sustained vocalization and aggression.

Series [2] concerns female Sprague-Dawley rats. Put plainly: Mechanical allodynia (von Frey hairs, vocalization threshold) in spinally-injured rats, repeated administration. The settings on record: for vocalization threshold (g) to mechanical stimulation with von Frey hairs: 1 hour after administration. Here is the method:
In this experiment the effect of repeated administration of NO-gabapentin was assessed and compared with that of the precursor drug gabapentin in a rat model of neuropathic pain. In 4 groups of female Sprague-Dawley rats weighting 200 g photochemically-induced ischemic spinal cord injury was produced according to methods describe by Xu et al. Pain, 1992, 48, 279-290.
Spinally-injured rats developed a chronic pain syndrome, including marked mechanical and cold allodynia. The rats were injured 3-6 months before the beginning of the experiment. Each of the groups of rats were i.p. treated daily for 10 day, respectively, with 60 mg/kg (167.2 μmole/Kg) of NO-gabapentin and with 30 mg/Kg (175 μmole/Kg) of gabapentin. Controls (two groups) received only the vehicle. Each day the treatment of the animals was made at the same time. During the experiment vocalized thresholds to graded mechanical touch/pressure were tested with von Frey hairs.
During testing, rats were gently restrained in a standing position and the von Frey hair was pushed onto the skin until filament becomes bent. The frequency of stimulation was about 1/s and repeated 5-10 times. The intensity of stimulation (g) which induced consistent vocalization (>75% response rate) is considered as pain threshold. Behavioral testings were carried out before the daily for the control group and 1 hour after administration for the treated groups.

The subject of another series is Swiss male mice. As to the kind of experiment: "Paw-licking" test (formalin injected in the paw). The settings on record: for Number "paw licking" %: 1 h before formalin, counted 15 min, percentage of control group. Here is the method: Four groups of Swiss male mice (20-25 g, Charles River) each formed by 10 animals, received by intraperitoneal injection Gabapentin (90 mg/kg) or the compound of formula (XVI) (Example 3), called NO-Gabapentin at the doses of 50 mg/kg, in a saline solution. The control group received the same volume of saline solution. One hour after the administration of the compound solutions, formalin (10 μl) was injected in the paw. In the 15 minutes subsequent to formalin administration, for each animal, the number of times wherein it licked its paw was counted. The analysis was carried out “in blind”.

Series [3] has as its system female Sprague-Dawley rats. Put plainly: Motor performance (combined testing system) in spinally-injured rats.
From the text: as §1, §2
The effect of the compounds on motor activity was also evaluated using a combined testing system as described in Hao, J. X. and Xu, X. J., Pain, 1996, 66, 279-286.

The next series deals with Wistar adult male rats. Put plainly: Acute toxicity in the diabetic animal (streptozocin). Here is the method:
In 50 Wistar adult male rats weighing 165-190 g, diabetes was induced by injection i.v. of a single dose of streptozocin (65 mg/kg in 1 ml/kg buffer citrate at pH 4.5).
After one week the animals were distributed in three groups of 10 rats each and treated per os for three days with daily doses of 100 mg/kg of gabapentin and NO-gabapentin. The controls were treated only with streptozocin.
Death rate was monitored for 7 days from the last treatment.

With `CN(C)CCCN1c2ccccc2CCc2ccc(Cl)cc21` [Clomipramine, clomipramine], in the series with Wistar adult rats (clomipramine 10 mg/kg i.p.), the response % was 72%.

Regarding `NCC1(CC(=O)O)CCCCC1` [Gabapentin], the “response to cold stimulation, score (0-3)” value (“response to cold stimulation” for short) turned out to be 2 in series [1] (175 μmole/kg i.p. single dose, time 0 min); 2 in series [1] (175 μmole/kg i.p. single dose, time 30 min); 2 in series [1] (175 μmole/kg i.p. single dose, time 120 min); 2 in series [1] (175 μmole/kg i.p. single dose, time 240 min). Besides, the “antiallodynic effect (cold), in words” value in series [1] (30 mg/Kg (175 μmole/Kg) i.p.) is given as “did not produce a significant antiallodynic effect”. Further, the “vocalization threshold (g) to mechanical stimulation with von Frey hairs” value in series [2] (175 μmole/kg i.p. daily, Day 1) is listed as 5 g; in series [2] (175 μmole/kg i.p. daily, Day 2), 6 g; in series [2] (175 μmole/kg i.p. daily, Day 4) it was 70 g; in series [2] (175 μmole/kg i.p. daily, Day 6) it was 90 g. Moreover, in series [2] (30 mg/Kg (175 μmole/Kg) i.p. daily for 10 day), the “effect on mechanical allodynia, in words” value was “did not produce a significant effect up to the second day”. For the same molecule, the “effect on mechanical allodynia compared with NO-gabapentin, in words” value in series [2] (gabapentin 30 mg/Kg vs NO-gabapentin 60 mg/kg i.p. daily) is recorded as “the effect was lower than that of NO-gabapentin”. In the series with Swiss male mice (90 mg/kg i.p.), the “Number "paw licking" %” value turned out to be 80%. The “motor performance (score)” value was found to be 20 in series [3] (175 μmole/kg i.p., time 0 min); 20 in series [3] (175 μmole/kg i.p., time 30 min); 20 in series [3] (175 μmole/kg i.p., time 120 min); 20 in series [3] (175 μmole/kg i.p., time 240 min); 15 in series [3] (584 μmole/kg i.p., time 0 min); 30 in series [3] (584 μmole/kg i.p., time 30 min). Further, the “motor performance (score)” value in series [3] (584 μmole/kg i.p., time 120 min) was 30; in series [3] (584 μmole/kg i.p., time 240 min), 25. The “effect on motor activity, in words” value in series [3] (100 mg/kg (584 μmole/Kg) i.p.) is “induced motor impairment and sedation”. In the series on Wistar adult male rats (100 mg/kg per os daily for three days, diabetic rats, monitored 7 days from last treatment), the lethality % came out at 50%.

As for `CC(=O)Oc1ccccc1C(=O)Oc1cccc(CO[N+](=O)[O-])c1` [NO-ASA, 2-acetylsalicylic acid (3-nitrooxymethyl)phenyl ester], the response % with Wistar adult rats (NO-ASA 100 mg/Kg p.o.) came out at 82%.

With `Cl.NCC1(CC(=O)Oc2cccc(CO[N+](=O)[O-])c2)CCCCC1` [NO-gabapentin, 1-(aminomethyl)cyclohexan acetic acid 3-(nitrooxymethyl)phenyl hydrochloride ester], the “response to cold stimulation” value in series [1] (55.7 μmole/kg i.p. single dose, time 0 min) was 2; in series [1] (55.7 μmole/kg i.p. single dose, time 30 min), 2; in series [1] (55.7 μmole/kg i.p. single dose, time 120 min), 2; in series [1] (167.2 μmole/kg i.p. single dose, time 0 min), 2; in series [1] (167.2 μmole/kg i.p. single dose, time 30 min) it was 1; in series [1] (167.2 μmole/kg i.p. single dose, time 120 min), 1. Besides, the “response to cold stimulation” value in series [1] (278.7 μmole/kg i.p. single dose, time 0 min) worked out at 2; in series [1] (278.7 μmole/kg i.p. single dose, time 30 min), 1; in series [1] (278.7 μmole/kg i.p. single dose, time 120 min), 1; in series [1] (278.7 μmole/kg i.p. single dose, time 240 min), 1. Besides, the “duration of significant effect on cold allodynia” value in series [1] (60 mg/kg (167.21 μmole/Kg) i.p.) is 120 min; in series [1] (100 mg/kg (278.7 μmole/Kg) i.p.) it was 240 min. For the same molecule, in series [1] (acute administration, 20, 60 or 100 mg/kg i.p.), the “effect on cold allodynia, in words” value is listed as “alleviated in a dose-dependent way cold allodynia”. The “vocalization threshold (g) to mechanical stimulation with von Frey hairs” value in series [2] (167.2 μmole/kg i.p. daily, Day 1) is given as 100 g; in series [2] (167.2 μmole/kg i.p. daily, Day 2) it was 200 g; in series [2] (167.2 μmole/kg i.p. daily, Day 4), 400 g; in series [2] (167.2 μmole/kg i.p. daily, Day 6) it was 90 g. The “maintenance of significant effect on mechanical allodynia, in words” value in series [2] (60 mg/kg (167.2 μmole/Kg) i.p. daily) was “a significant effect was maintained up to day 6”. For the same molecule, the “effect on mechanical allodynia, in words” value in series [2] (60 mg/kg (167.2 μmole/Kg) i.p. daily for 10 day) is “alleviated mechanical allodynia following the first administration”. Moreover, the “Number "paw licking" %” value in the series with Swiss male mice (50 mg/kg i.p.) came to 70%. In addition, the “inhibition of "paw-licking" compared with starting drug, in words” value in the series with Swiss male mice (NO-gabapentin 50 mg/kg vs Gabapentin 90 mg/kg i.p.) is reported as “more active than the starting drug”. Also, the “death rate with respect to animals treated with gabapentin” value in the series on Wistar adult male rats (diabetic animals, 100 mg/kg per os for three days) was “less than half”.

For the origin of these results see patent publication US7812039B2, “Drugs for chronic pains” (Nicox S.A., priority 2001, dated 2010).
